Strand notation (5' to 3'): a small letter for the sugar, then the base; units joined by * are phosphorothioate-linked, units joined directly phosphodiester-linked; [ ] holds rarer units or linkages, { } end groups; capitals alone tell only the bases. e = 2'-O-(2-methoxyethyl) (MOE); k = constrained ethyl (cEt); [5mC] = 5-methylcytosine; d = 2'-deoxy (DNA)
How the values were obtained:
Assay type in all cases: cell-based
human SMAD7 mRNA [1] = assay: Antisense inhibition of human SMAD7 mRNA expression in Hep3B cells by 5-10-5 MOE gapmers, single concentration, electroporation, RT-PCR (Example 1, Study 1 and 2)
Procedure: Antisense oligonucleotides were designed to target human SMAD7 mRNA and were tested for their effects on SMAD7 mRNA expression in vitro. Cultured Hep3B cells at a density of 20,000 cells per well were transfected using electroporation with antisense oligonucleotide ION 483663 (a 5-10-5 MOE gapmer), the sequence of which overlaps with ION 28453 (a 4-10-4 MOE gapmer) was included in these assays for comparison. ION 28453 has been previously disclosed in U.S. Pat. No. 6,159,697). After a treatment period of approximately 24 hours, RNA was isolated from the cells and SMAD7 mRNA levels were measured by quantitative real-time PCR. Primer probe set RTS5062 (forward sequence […], designated herein as SEQ ID NO: 11; reverse sequence […], designated herein as SEQ ID NO: 12; probe sequence […], designated herein as SEQ ID NO: 13) was used to measure human SMAD7 mRNA levels. SMAD7 mRNA levels were adjusted according to total RNA content, as measured by RIBOGREEN®. Results are presented as percent inhibition of SMAD7 mRNA expression, relative to untreated control cells.
The newly designed chimeric antisense oligonucleotides in the Tables below were designed as 5-10-5 MOE gapmers. The gapmers are 20 nucleosides in length, wherein the central gap segment comprises of ten 2′-deoxynucleosides and is flanked by wing segments on the 5′ direction and the 3′ direction comprising five nucleosides each. Each nucleoside in the 5′ wing segment and each nucleoside in the 3′ wing segment has a 2′-MOE modification. The internucleoside linkages throughout each gapmer are phosphorothioate (P═S) linkages. All cytosine residues throughout each gapmer are 5-methylcytosines.
“Start site” indicates the 5′-most nucleoside to which the gapmer is targeted in the human gene sequence. “Stop site” indicates the 3′-most nucleoside to which the gapmer is targeted human gene sequence.
Cultured Hep3B cells at a density of 20,000 cells per well were transfected using electroporation with 5,000 nM antisense oligonucleotide.
Cultured Hep3B cells at a density of 20,000 cells per well were transfected using electroporation with 15,000 nM antisense oligonucleotide. The antisense oligonucleotides were tested in a series of experiments that had similar culture conditions as described below.
Some of the oligonucleotides presented were complementary to SMAD7 mRNA sequences RefSeqNo. NM_001190821.1 (designated herein as SEQ ID NO: 3) or RefSeqNo. NM_001190822.1 (designated herein as SEQ ID NO: 4), and are presented in a separate table shown below.

human SMAD7 mRNA [2] = assay: Antisense inhibition of human SMAD7 mRNA expression in Hep3B cells by 3-10-3 cEt gapmers, 10,000 nM, electroporation (Example 2); settings: SMAD7 mRNA, Hep3B cells, electroporation with 10,000 nM antisense oligonucleotide, approximately 24 hours, primer probe set RTS5062, relative to untreated control cells
In short: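 Hep3B cells (20,000 per well) were electroporated with 10,000 nM 16-mer 3-10-3 cEt gapmer (phosphorothioate, 5-methylcytosine). After about 24 h, SMAD7 mRNA was quantified by qRT-PCR with primer probe set RTS5062, normalised to RIBOGREEN total RNA, and expressed as percent inhibition versus untreated cells.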

human SMAD7 mRNA [3] = assay: Dose-dependent inhibition of human SMAD7 mRNA expression in Hep3B cells (Example 3, Study 1 and 2); settings: electroporation; for % inhibition of SMAD7 mRNA expression: approximately 16 hours
In short: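 Hep3B cells, 20,000 per well, electroporated with antisense oligonucleotide at 0.31, 1.25, 5.00 or 20.00 μM (first series) or 0.74, 2.22, 6.67 or 20.00 μM (second series). After ~16 h, SMAD7 mRNA measured by RT-qPCR (RTS5062), normalised to RIBOGREEN total RNA. Percent inhibition vs untreated cells; IC50 derived.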

[4] = electroporation, 15,000 nM, approximately 24 hours, relative to untreated control cells, gapmers targeting SEQ ID NO: 1 and 2
[5] = Study 2, electroporation with 15,000 nM antisense oligonucleotide, 5-10-5 MOE gapmers targeting SEQ ID NO: 1 and 2
[6] = electroporation, 15,000 nM antisense oligonucleotide (Study 2), 5-10-5 MOE gapmers targeting SEQ ID NO: 1 and 2
[7] = electroporation with 15,000 nM antisense oligonucleotide (Study 2), 5-10-5 MOE gapmers targeting SEQ ID NO: 1 and 2

## 771589 (antisense eT*eG*eG*eA*e[5mC]*dA*dG*dG*d[5mC]*d[5mC]*d[5mC]*dG*dT*dG*dT*e[5mC]*e[5mC]*eT*eT*eG) [compound 771589]
Human SMAD7 mRNA [1]; [4]
  % inhibition of SMAD7 mRNA expression: 51%

## 771806 (antisense eA*e[5mC]*eA*eA*eT*dG*dA*dA*dT*dA*dA*dT*dT*dG*dT*eT*e[5mC]*eA*e[5mC]*eG) [compound 771806]
Human SMAD7 mRNA [1]; [5]
  % Inhibition: 0%

## 771496 (antisense eT*eG*eA*e[5mC]*e[5mC]*dT*d[5mC]*dT*dA*dG*d[5mC]*d[5mC]*dA*dG*d[5mC]*eA*e[5mC]*eG*eG*eG) [compound 771496]
Human SMAD7 mRNA [1]; [5]
  % inhibition of SMAD7 mRNA expression: 20%

## 771396 (antisense e[5mC]*eT*eG*e[5mC]*eG*d[5mC]*dT*d[5mC]*d[5mC]*dG*dG*d[5mC]*dT*dG*d[5mC]*e[5mC]*e[5mC]*e[5mC]*eA*e[5mC]) [compound 771396]
Human SMAD7 mRNA [1]; [6]
  % inhibition of SMAD7 mRNA expression: 48%

## 771883 (antisense eA*eG*e[5mC]*eT*eG*dG*d[5mC]*dA*d[5mC]*dT*dG*dA*dA*dT*dG*e[5mC]*eT*eG*eA*eT) [compound 771883]
Human SMAD7 mRNA [1]; [5]
  % Inhibition: 26%
Human SMAD7 mRNA [1]; electroporation, 5,000 nM, approximately 24 hours, relative to untreated control cells, gapmers targeting SEQ ID NO: 1 and 2
  % inhibition of SMAD7 mRNA expression: 0%

## 771722 (antisense eA*eG*eA*eG*eG*dG*dA*dG*d[5mC]*dT*d[5mC]*d[5mC]*dA*dG*dG*eA*eA*eT*eT*eT) [compound 771722]
Human SMAD7 mRNA [1]; [6]
  % inhibition of SMAD7 mRNA expression: 10%

## 771565 (antisense e[5mC]*eT*eG*e[5mC]*e[5mC]*dG*d[5mC]*dT*d[5mC]*d[5mC]*dT*dG*d[5mC]*dA*d[5mC]*eA*e[5mC]*eG*e[5mC]*eG) [compound 771565]
Human SMAD7 mRNA [1]; [4]
  % inhibition of SMAD7 mRNA expression: 55%

## 771608 (antisense e[5mC]*eT*eG*eG*eG*dT*dG*dA*dG*d[5mC]*dA*dA*dT*dA*d[5mC]*eT*eG*eT*eG*eA) [compound 771608]
Human SMAD7 mRNA [1]; [7]
  % Inhibition of SMAD7 mRNA: 45%
  % inhibition of SMAD7 mRNA expression: 34%

## 771710 (antisense eG*eG*eG*e[5mC]*eT*dG*d[5mC]*d[5mC]*d[5mC]*dA*dT*dT*d[5mC]*d[5mC]*dT*eA*eG*e[5mC]*eG*e[5mC]) [compound 771710]
Human SMAD7 mRNA [1]; [5]
  % Inhibition: 40%

## 582468 (antisense eG*e[5mC]*e[5mC]*eA*eA*dT*dA*dT*d[5mC]*dA*dT*dA*dA*d[5mC]*d[5mC]*e[5mC]*eA*eA*eG*e[5mC]) [compound 582468]
Human SMAD7 mRNA [1]; [5]
  % inhibition of SMAD7 mRNA expression: 4%
Human SMAD7 mRNA [1]; [7]
  % inhibition of SMAD7 mRNA expression: 0%

## 771740 (antisense eG*e[5mC]*e[5mC]*eA*e[5mC]*dT*d[5mC]*d[5mC]*dT*dG*dA*d[5mC]*dT*d[5mC]*dA*e[5mC]*eG*e[5mC]*eA*eA) [compound 771740]
Human SMAD7 mRNA [1]; [5]
  % Inhibition: 20%

## 771791 (antisense eG*eA*eG*eG*eA*dG*dG*dG*dA*dG*dA*dA*dA*d[5mC]*dT*e[5mC]*e[5mC]*eT*e[5mC]*eA) [compound 771791]
Human SMAD7 mRNA [1]; [5]
  % Inhibition: 22%

## 771700 (antisense eT*eA*eT*eG*e[5mC]*dA*d[5mC]*dA*d[5mC]*dT*d[5mC]*dT*d[5mC]*d[5mC]*d[5mC]*eA*eG*eG*eA*eG) [compound 771700]
Human SMAD7 mRNA [1]; [5]
  % Inhibition: 9%

## 771668 (antisense e[5mC]*eT*e[5mC]*eT*e[5mC]*dA*dA*dA*dG*d[5mC]*dA*d[5mC]*dT*dA*d[5mC]*eA*eA*eT*eG*e[5mC]) [compound 771668]
Human SMAD7 mRNA [1]; [5]
  % inhibition of SMAD7 mRNA expression: 9%

## 771689 (antisense eA*eG*eT*eG*eT*dA*d[5mC]*dA*dT*dT*dT*dT*dA*dA*dA*eA*eA*eT*e[5mC]*eG) [compound 771689]
Human SMAD7 mRNA [1]; [7]
  % inhibition of SMAD7 mRNA expression: 30%

## 771928 (antisense e[5mC]*e[5mC]*e[5mC]*e[5mC]*eA*dT*dT*dG*d[5mC]*d[5mC]*dA*d[5mC]*dT*dA*d[5mC]*eA*eG*eA*eG*eA) [compound 771928]
Human SMAD7 mRNA [1]; [7]
  % Inhibition of SMAD7 mRNA: 27%
Human SMAD7 mRNA [1]; [6]
  % inhibition of SMAD7 mRNA expression: 0%

## 771498 (antisense e[5mC]*eT*eG*eT*eT*dG*dA*dA*dG*dA*dT*dG*dA*d[5mC]*d[5mC]*eT*e[5mC]*eT*eA*eG) [compound 771498]
Human SMAD7 mRNA [1]; [6]
  % inhibition of SMAD7 mRNA expression: 48%

## 771381 (antisense eA*eA*eA*eA*e[5mC]*dA*d[5mC]*d[5mC]*dA*dA*dG*dA*dT*d[5mC]*d[5mC]*eA*eT*e[5mC]*eT*eT) [compound 771381]
Human SMAD7 mRNA [1]; [6]
  % inhibition of SMAD7 mRNA expression: 0%

## 771925 (antisense eG*eG*e[5mC]*e[5mC]*eT*d[5mC]*dT*d[5mC]*dG*d[5mC]*dT*dG*dA*dT*dA*eG*eT*eT*eA*eA) [compound 771925]
Human SMAD7 mRNA [1]; [4]
  % inhibition of SMAD7 mRNA expression: 10%

## 771719 (antisense eA*e[5mC]*eT*eG*eA*d[5mC]*dT*dT*dG*d[5mC]*dA*dG*dG*dT*dG*eA*e[5mC]*eT*eG*eG) [compound 771719]
Human SMAD7 mRNA [1]; [5]
  % Inhibition: 35%

## 771365 (antisense eA*eT*eT*eA*eT*dT*dA*dA*dT*dG*dG*dT*d[5mC]*dT*dG*e[5mC]*eT*e[5mC]*eA*eG) [compound 771365]
Human SMAD7 mRNA [1]; [6]
  % inhibition of SMAD7 mRNA expression: 5%

## 771721 (antisense e[5mC]*e[5mC]*e[5mC]*eA*eG*d[5mC]*dA*d[5mC]*dT*dG*dT*dG*dA*dT*dG*eT*e[5mC]*e[5mC]*eA*eG) [compound 771721]
Human SMAD7 mRNA [1]; [6]
  % inhibition of SMAD7 mRNA expression: 43%

## 771445 (eA*e[5mC]*eA*eG*e[5mC]*d[5mC]*dT*d[5mC]*dT*dT*dG*dA*d[5mC]*dT*dT*e[5mC]*e[5mC]*eG*eA*eG; antisense) [compound 771445]
Human SMAD7 mRNA [1]; [5]
  % Inhibition: 10%

## 771863 (antisense e[5mC]*e[5mC]*eA*eG*e[5mC]*d[5mC]*d[5mC]*d[5mC]*d[5mC]*dT*d[5mC]*d[5mC]*dT*dG*dG*eG*eA*e[5mC]*eT*eA) [compound 771863]
Human SMAD7 mRNA [1]; [5]
  % Inhibition: 9%

## 771567 (antisense eG*eG*eG*eA*e[5mC]*dA*dT*d[5mC]*d[5mC]*dA*dT*dA*dA*dG*dA*eG*eA*e[5mC]*eA*e[5mC]) [compound 771567]
Human SMAD7 mRNA [1]; [5]
  % inhibition of SMAD7 mRNA expression: 39%

## 771400 (antisense e[5mC]*eG*eA*e[5mC]*eA*dG*d[5mC]*dA*dG*d[5mC]*dA*dG*d[5mC]*dA*dG*e[5mC]*eA*eG*eG*eG) [compound 771400]
Human SMAD7 mRNA [1]; [4]
  % inhibition of SMAD7 mRNA expression: 52%

## 771449 (eT*e[5mC]*eG*e[5mC]*eA*dG*dA*dG*dT*d[5mC]*dG*dG*d[5mC]*dT*dA*eA*eG*eG*eT*eG; antisense) [compound 771449]
Human SMAD7 mRNA [1]; [7]
  % Inhibition of SMAD7 mRNA: 4%
Human SMAD7 mRNA [1]; [6]
  % inhibition of SMAD7 mRNA expression: 0%

## 771678 (antisense eT*eT*eA*eT*eT*dT*dT*dT*d[5mC]*dT*dT*dG*dT*dT*dT*eA*eT*eA*e[5mC]*eA) [compound 771678]
Human SMAD7 mRNA [1]; [5]
  % inhibition of SMAD7 mRNA expression: 0%

## 829864 (antisense kG*kG*kG*dT*dA*dA*d[5mC]*dT*dG*d[5mC]*dT*dG*d[5mC]*kG*kG*kT) [compound 829864]
Human SMAD7 mRNA [2]
  % Inhibition: 68%
Human SMAD7 mRNA [3]; 740 nM, Study 2, relative to untreated control cells
  % inhibition of SMAD7 mRNA expression: 0%
Human SMAD7 mRNA [3]; 2220 nM, Study 2
  % inhibition of SMAD7 mRNA expression: 33%
Human SMAD7 mRNA [3]; 6670.0 nM, Study 2
  % inhibition of SMAD7 mRNA expression: 67%
Human SMAD7 mRNA [3]; 20000.0 nM, Study 2
  % inhibition of SMAD7 mRNA expression: 76%
Human SMAD7 mRNA [3]; Study 2 (740-20000 nM)
  IC50: 1 µM
